Test results taken from patent US5719291A, “Cyclohexane derivatives” (Hoffmann-La Roche Inc., priority 1991, dated 1998).
Values after ≈ are worked out from the molar mass of the structure shown. Structures can show the parent of a compound that is named as a salt. Where two headings read alike, the source gives them in different places.

How the values were obtained:
[1] = Acute toxicity (LD50) by oral administration in mice; assay type: in vivo
Cryptococcus neoformans = experiment: In vitro antifungal activity, MIC (Method A); assay type: cell-based; conditions: 3 days, 27° C.; for Antifungal activity MIC: 1×10^5 cells/ml, pH 7.0; for MIC: Cryptococcus neoformans, 72 h
Method: (§1) The in vitro antifungal activities of representative compounds of the present invention were measured by determining the minimal inhibitory concentration (MIC), which is the concentration of an antifungal at which no fungal growth can be observed.
(§2) The MICs were determined by the microbroth dilution procedure according to NCCLS with the following minor modifications (Galgiani et al., Antimicrob. Agents Chemother., 33, 731 (1989). The medium was solidified with 0.2% low melting point agarose and buffered to pH 7.0 with 0.25%: K2 HPO4 in Yeast Nitrogen Base (Difco Lab.). Inoculum size was 1×10^5 cells/ml, and incubation was carried out for 3 days at 27° C. The MICs ([…]) are shown in Table 1. The reference compound is compound (IA) in U.S. Pat. No. 4,952,604. The compounds used are identified by reference to the Examples in which they were prepared.
(§3) The in vitro antifungal activities of the representative compounds of the present invention shown in Table 1 and Table 2 were measured by determining the minimal inhibitory concentrations (MIC: Method A) or 80% growth inhibition concentration (IC80 : Method B) respectively. MIC is defined as the concentration of an antifungal at which growth of fungi is not observed and IC80 is the concentration where cell turbidity measured at OD630 is reduced by 80%.
(§4) Antifungal activities were determined by either method A or B (see below) using microtest plates according NCCLS with minor modifications (Galgiani et at., Antimicrob. Agents Chemother. 33, 731 (1989)).
(§5) (Method A) The medium was solidified with 0.2% low melting point agarose and buffered to pH 7.0 with 0.25% K2 HPO4 in Yeast Nitrogen Base (Difco Lab.). Inoculum size was 1×10^5 cells/ml, and incubation was carried out for 3 days at 27° C. The reference compound is compound (IA) in U.S. Pat. No. 4,952,604.

Candida albicans [2] = experiment: In vitro antifungal activity, MIC (Method A); assay type: cell-based; conditions: 3 days, 27° C.; for Antifungal activity MIC: 1×10^5 cells/ml, pH 7.0; for MIC: Candida albicans, 72 h
Method: as §1, §2, §3, §4, §5

Aspergillus fumigatus = experiment: In vitro antifungal activity, MIC (Method A); assay type: cell-based; conditions: 3 days, 27° C.; for Antifungal activity MIC: 1×10^5 cells/ml, pH 7.0; for MIC: Aspergillus fumigatus, 72 h
Method: as §1, §2, §3, §4, §5

C. neoformans = experiment: In vitro antifungal activity, IC80 (Method B); assay type: cell-based; conditions: Cryptococcus neoformans, 1-2 days, 27° C., read-out: Antifungal activity IC80
Method: as §3, §4
(§6) (Method B) The medium for yeast was buffered to pH 7.0 with 0.25% K2 HPO4 in Yeast Nitrogen Base (Difco Lab.). For the filamentous fungi, 0.2% of low melting point agar was supplemented to the above medium. Inoculum size was 1×10^4 cells/ml, and incubation was carried out for 1-2 days at 27° C. Fluconazole (Pfizer) was used as reference.

Candida albicans [3] = experiment: In vitro antifungal activity, IC80 (Method B); assay type: cell-based; conditions: 1-2 days, 27° C., read-out: Antifungal activity IC80
Method: as §3, §4, §6

A. fumigatus = experiment: In vitro antifungal activity, IC80 (Method B); assay type: cell-based; conditions: Aspergillus fumigatus, 1×10^4 cells/ml, 1-2 days, 27° C., 0.2% agar, read-out: Antifungal activity IC80
Method: as §3, §4, §6

[4] = pH 7, C. neoformans CY1057, 1×10^4 cells/ml
[5] = pH 7, C. neoformans CY1059, 1×10^4 cells/ml
[6] = pH 7, Candida albicans CY1002, 1×10^4 cells/ml
[7] = pH 7, Candida albicans CY1005, 1×10^4 cells/ml
[8] = pH 7, Candida albicans CY3003, 1×10^4 cells/ml

Compound	LD50 ([1]; mouse, in vivo, read-out: LD50) [mg/kg]	IC80 (C. neoformans; [4]) [µg/mL]	IC80 (C. neoformans; [5]) [µg/mL]	IC80 (Candida albicans [3]; [6]) [µg/mL]	IC80 (Candida albicans [3]; [7]) [µg/mL]	IC80 (Candida albicans [3]; [8]) [µg/mL]	IC80 (A. fumigatus; A. fumigatus CF1003) [µg/mL]	IC80 (A. fumigatus; A. fumigatus CF1004) [µg/mL]	also measured
CCCCCCC/C=C/[C@@H]1OC[C@H](C)C=C1Cn1ccnc1 [Example 60, 1-[[(2S,5R)-5,6-dihydro-5-methyl-2-[(E)-1-nonenyl]-2H-pyran-3-yl]methyl]-1H-imidazole]	> 500	–	–	–	–	–	–	–	–
(2S,3R,4S,5S)-5-methyl-2-[(E)-1-nonenyl]-4-propoxy-tetrahydro-2H-pyran-3-ylglycinate trifluoroacetic acid salt [Example 21]	–	–	–	–	–	–	–	–	LD50 [1]: more than 500 mg/kg; Antifungal activity MIC (Cryptococcus neoformans; Cryptococcus neoformans CY1057): 12.5 µg/mL; Antifungal activity MIC (Cryptococcus neoformans; Cryptococcus neoformans CY1059): 12.5 µg/mL; Antifungal activity MIC (Cryptococcus neoformans; Cryptococcus neoformans CY1061): 25 µg/mL; Antifungal activity MIC (Candida albicans [2]; Candida albicans CY1002): 100 µg/mL; Antifungal activity MIC (Candida albicans [2]; Candida albicans CY1005): 50 µg/mL; Antifungal activity MIC (Candida albicans [2]; Candida albicans CY3003): 100 µg/mL; Antifungal activity MIC (Aspergillus fumigatus; Aspergillus fumigatus CF1003): 12.5 µg/mL; Antifungal activity MIC (Aspergillus fumigatus; Aspergillus fumigatus CF1004): 6.25 µg/mL; Antifungal activity MIC (Aspergillus fumigatus; Aspergillus fumigatus CF1023): 12.5 µg/mL
CCc1ccc(OC[C@@H]2CCC(C)(C)[C@H](OC)[C@H]2Cn2cncn2)cc1 [Example 83, 1-[[(1R,2R,6R)-2-methoxy-3,3-dimethyl-6-(4-ethylphenoxy)methyl]methyl]-1H,1,2,4-triazole]	–	0.21 (≈ 0.587 µM)	0.19 (≈ 0.531 µM)	0.31 (≈ 0.867 µM)	0.24 (≈ 0.671 µM)	0.59 (≈ 1.65 µM)	> 200	> 200	–
CCCCCCC/C=C/[C@@H]1OC[C@H](C)[C@H](OC)[C@H]1OC(=O)CN [Example 4, (2S,3R,4S,5S)-4-methoxy-5-methyl-2-[(E)-1-nonenyl]-tetrahydro-2H-pyran-3-ylglycinate trifluoroacetic acid salt]	> 500	–	–	–	–	–	–	–	MIC (Cryptococcus neoformans; pH 7, Cryptococcus neoformans CY1057, 1×10^5 cells/ml): 3.13 µg/mL; MIC (Cryptococcus neoformans; pH 7, Cryptococcus neoformans CY1059, 1×10^5 cells/ml): 6.25 µg/mL; MIC (Cryptococcus neoformans; pH 7, Cryptococcus neoformans CY1061, 1×10^5 cells/ml): 12.5 µg/mL; MIC (Candida albicans [2]; pH 7, Candida albicans CY1002, 1×10^5 cells/ml): 100 µg/mL; MIC (Candida albicans [2]; pH 7, Candida albicans CY1005, 1×10^5 cells/ml): 50 µg/mL; MIC (Candida albicans [2]; pH 7, Candida albicans CY3003, 1×10^5 cells/ml): 50 µg/mL; MIC (Aspergillus fumigatus; pH 7, Aspergillus fumigatus CF1003, 1×10^5 cells/ml): 3.13 µg/mL; MIC (Aspergillus fumigatus; pH 7, Aspergillus fumigatus CF1004, 1×10^5 cells/ml): 3.13 µg/mL; MIC (Aspergillus fumigatus; pH 7, Aspergillus fumigatus CF1023, 1×10^5 cells/ml): 1.56 µg/mL
CO[C@@H]1[C@@H](Cn2cncn2)[C@H](CCc2ccc3ccccc3n2)CCC1(C)C [Example 76, 1-[[(1R,2R,6S)-2-methoxy-3,3-dimethyl-6-(2-quinolin-2-ylethyl)cyclohexyl]methyl]-1H,1,2,4-triazole]	–	10 (≈ 26.4 µM)	30 (≈ 79.3 µM)	0.38 (≈ 1 µM)	0.77 (≈ 2.03 µM)	0.36 (≈ 0.951 µM)	30 (≈ 79.3 µM)	36 (≈ 95.1 µM)	–
CCCCCCCCO[C@@H]1CCC(C)(C)[C@H](OC)[C@@H]1Cn1cncn1 [Example 69, 1-[[(1R,2R,6R)-2-methoxy-3,3-dimethyl-6-octyloxycyclohexyl]methyl]-1H-1,2,4-triazole]	> 500	–	–	–	–	–	–	–	–
CO[C@@H]1[C@@H](Cn2cncn2)[C@H](CSc2ccc(Cl)cc2)CCC1(C)C [Example 73, 1-[[(1R,2R,6R)-6-[(4-chlorophenylthio)methyl]-2-methoxy-3,3-dimethylcyclohexyl]methyl]-1H-1,2,4-triazole]	–	5.8 (≈ 15.3 µM)	6.1 (≈ 16.1 µM)	0.008 (≈ 0.0211 µM)	0.011 (≈ 0.029 µM)	0.02 (≈ 0.0526 µM)	23 (≈ 60.5 µM)	23 (≈ 60.5 µM)	–
CO[C@@H]1[C@@H](Cn2cncn2)[C@H](CCc2ccc(C)cc2)CCC1(C)C [Example 74]	–	0.46 (≈ 1.35 µM)	3.8 (≈ 11.1 µM)	0.076 (≈ 0.223 µM)	0.093 (≈ 0.272 µM)	0.038 (≈ 0.111 µM)	20 (≈ 58.6 µM)	24 (≈ 70.3 µM)	–
COc1ccc(CC[C@@H]2CCC(C)(C)[C@H](OC)[C@H]2NC(=O)CN)cc1 [Example 55, (1R,2S,3S)-2-[(aminoacetyl)amino]-4-47dimethyl-3-methoxy-1-[2-(4-methoxyphenyl)ethyl]cyclohexane trifluoroacetic acid salt]	–	170	150	49	69	50	> 200	> 200	–
CO[C@@H]1[C@@H](Cn2cncn2)[C@H](CCc2ccc(F)cc2F)CCC1(C)C [Example 80, 1-[[(1R,2R,6S)-6-(2,4-difluorophenethyl)-2-methoxy-3,3-dimethylcyclohexyl]methyl]-1H-1,2,4-triazole]	–	11 (≈ 30.3 µM)	12 (≈ 33 µM)	0.35 (≈ 0.963 µM)	0.65 (≈ 1.79 µM)	0.19 (≈ 0.523 µM)	93 (≈ 256 µM)	40 (≈ 110 µM)	–
